Test results reported in patent publication US7112610B2, “Methods for using amino acids with affinity for the α2δ-protein” (Warner-Lambert Company LLC, priority 2003, dated 2006).
Where a name gives a salt, the structure may show the parent alone.

Target: T1, α2δ-subunit of a calcium channel (Sus scrofa, UniProt A0A287BIN3)
T1 construct: the α2δ-subunit derived from porcine brain tissue was used; from tissue; host or cells: porcine brain tissue
Assay: radioligand binding assay using [3H]-gabapentin
Details: α2δ-subunit derived from porcine brain tissue
Description: The ability of compounds of the present invention to bind to the α2δ-subunit of a calcium channel can be determined using the following binding assay.
The radioligand binding assay using [^3H]-gabapentin and the α2δ-subunit derived from porcine brain tissue was used (See, Gee, Nicolas S et al. “The novel anticonvulsant drug, gabapentin (Neurontin), binds to the α2δ subunit of a calcium channel”. J. Biol. Chem. (1996), 271 (10), 5768–76). Compounds of the invention bind with nanomolar to micromolar affinity for the α2δ protein.

T1 sequence (A0A287BIN3 25-1109): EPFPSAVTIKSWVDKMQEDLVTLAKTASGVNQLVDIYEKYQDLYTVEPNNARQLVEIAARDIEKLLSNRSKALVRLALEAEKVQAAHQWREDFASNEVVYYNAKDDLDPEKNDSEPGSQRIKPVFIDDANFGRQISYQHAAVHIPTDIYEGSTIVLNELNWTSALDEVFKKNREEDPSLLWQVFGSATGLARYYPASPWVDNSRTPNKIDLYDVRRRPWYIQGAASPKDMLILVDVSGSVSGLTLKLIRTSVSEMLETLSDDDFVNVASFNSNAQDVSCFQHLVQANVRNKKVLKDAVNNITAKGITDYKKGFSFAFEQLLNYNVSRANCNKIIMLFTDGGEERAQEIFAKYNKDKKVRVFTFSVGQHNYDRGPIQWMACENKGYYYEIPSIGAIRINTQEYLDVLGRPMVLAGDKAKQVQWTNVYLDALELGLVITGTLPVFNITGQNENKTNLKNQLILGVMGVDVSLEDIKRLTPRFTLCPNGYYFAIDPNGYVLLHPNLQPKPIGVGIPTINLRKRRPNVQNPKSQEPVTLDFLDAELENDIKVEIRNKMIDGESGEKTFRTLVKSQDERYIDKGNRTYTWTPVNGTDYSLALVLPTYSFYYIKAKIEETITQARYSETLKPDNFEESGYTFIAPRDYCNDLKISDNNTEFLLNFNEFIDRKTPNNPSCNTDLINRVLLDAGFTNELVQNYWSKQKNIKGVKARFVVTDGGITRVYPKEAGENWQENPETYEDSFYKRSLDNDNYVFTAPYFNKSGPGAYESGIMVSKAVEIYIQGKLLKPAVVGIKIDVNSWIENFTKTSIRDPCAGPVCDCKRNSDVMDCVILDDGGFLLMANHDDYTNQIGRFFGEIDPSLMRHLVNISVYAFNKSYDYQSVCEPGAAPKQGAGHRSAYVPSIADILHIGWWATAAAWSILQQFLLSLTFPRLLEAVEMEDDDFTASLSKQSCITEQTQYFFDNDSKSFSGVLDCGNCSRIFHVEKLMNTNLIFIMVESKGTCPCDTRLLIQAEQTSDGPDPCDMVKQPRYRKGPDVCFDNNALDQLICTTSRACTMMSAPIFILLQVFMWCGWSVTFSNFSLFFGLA

Question: Which “affinity to the α2δ protein” value does the source give for `CCC[C@@H](C)C[C@H](CN)C(=O)O` [(2R,4R)-2-Aminomethyl-4-methyl-heptanoic Acid] here?
Answer: 29 nM

Question: For `CCC[C@H](C)C[C@H](N)CC(=O)O` [(3S,5S)-3-amino-5-methyl-octanoic acid], which “affinity to the α2δ protein” value is on record?
Answer: 1000 nM

Question: With `CC(C)CCCC(C)C[C@@H](N)CC(=O)O` (stereo partly drawn) [R-3-amino-5,9-dimethyl-decanoic acid] as the molecule, how does the “affinity to the α2δ protein” value read?
Answer: 527 nM

Question: For `CCCC(C)(C)CC(CN)C(=O)O.Cl` (stereo not drawn) [2-Aminomethyl-4,4-dimethyl-heptanoic Acid Hydrochloride], which “affinity to the α2δ protein” value is on record?
Answer: 83 nM

System: not given
Assay: not given
Details: not given

Question: With `CCCC(C)(C)C[C@H](N)CC(=O)O` (as salt: hydrochloride) as the molecule, how does the melting point read?
Answer: 194.2 to 195.2 °C

Question: Which melting point does the source give for `CCC[C@@H](C)C[C@H](CN)C(=O)O` (as salt: hydrochloride) [(2R,4R)-2-Aminomethyl-4-methyl-heptanoic Acid] here?
Answer: 226.3 to 228 °C

Question: With `CCCC[C@@H](C)C[C@H](N)CC(=O)O` (as salt: hydrochloride) as the molecule, how does the melting point read?
Answer: 142.5 to 143.3 °C

Question: For `CCC[C@@H](C)C[C@H](N)CC(=O)O.Cl`, which melting point is on record?
Answer: 142.5 to 142.7 °C

Question: With `CCCC(C)(C)CC(CN)C(=O)O.Cl` (stereo not drawn) [2-Aminomethyl-4,4-dimethyl-heptanoic Acid Hydrochloride] as the molecule, how does the melting point read?
Answer: 229.5 to 231 °C
